This assay relates to 648629-189-R-J1-PDC spheroids with HUVEC/MSC, viability. Nature of the assay: Anticancer human tumor 648629-189-R-J1-PDC patient-derived bladder carcinoma cell line growth inhibition [PI3K]. Particulars: for viability, T/C: stronger effect = lower value. Summed up:
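Complex 3D spheroids (cancer cells + endothelial HUVEC + mesenchymal stem cells); drug pairs of targeted agent x inavolisib/alpelisib/duvelisib/copanlisib; half-log series from ~Cmax, max 10 microM if Cmax unknown; endpoint viability.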

[1] abbreviates: curve of first compound, second compound 0.0316 µM.
Where [2] appears, read: curve of first compound, second compound 0.1 µM.
Where [3] appears, read: curve of first compound, second compound 0.316 µM.
The mark [4] stands for this setting: curve of first compound, second compound 1 µM.
Where [5] appears, read: second compound 0.0316 µM, first compound 0.0316 µM.
The mark [6] stands for this setting: second compound 0.0316 µM, first compound 0.1 µM.
The mark [7] stands for this setting: second compound 0.0316 µM, first compound 0.316 µM.
Where [8] appears, read: second compound 0.0316 µM, first compound 1 µM.
Setting [9] is: second compound 0.1 µM, first compound 0.0316 µM.
The mark [10] stands for this setting: second compound 0.1 µM, first compound 0.1 µM.
Where [11] appears, read: second compound 0.1 µM, first compound 0.316 µM.
The mark [12] stands for this setting: second compound 0.1 µM, first compound 1 µM.
Setting [13] is: second compound 0.316 µM, first compound 0.0316 µM.
The mark [14] stands for this setting: second compound 0.316 µM, first compound 0.1 µM.
Where [15] appears, read: second compound 0.316 µM, first compound 0.316 µM.
Where [16] appears, read: second compound 0.316 µM, first compound 1 µM.
Setting [17] is: second compound 1 µM, first compound 0.0316 µM.
The mark [18] stands for this setting: second compound 1 µM, first compound 0.1 µM.
The mark [19] stands for this setting: second compound 1 µM, first compound 0.316 µM.
Setting [20] is: second compound 1 µM, first compound 1 µM.

Where “and” joins values, the source holds several entries; their conditions need not be identical. Equal values may be shown once. Bounds are passed on as bounds.
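Further: spheroids exposed to agents for seven days before reading.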
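Wherever viability, T/C is given: percent of vehicle control luminescence where 100% = DMSO treated spheroids.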

For orientation: IC50 means the midpoint of a concentration-inhibition curve. The viability, T/C is the result in the treated group divided by that in the control group, in per cent. Turning to `CCN1CCN(Cc2ccc(Nc3ncc(F)c(-c4cc(F)c5nc(C)n(C(C)C)c5c4)n3)nc2)CC1` + Cc1nc(NC(=O)N2CCCC2C(N)=O)sc1-c1ccnc(C(C)(C)C(F)(F)F)c1, the half-inhibitory concentration (IC50) is greater than 1 µM under setting [1]; greater than 1 µM under setting [2]; greater than 1 µM under setting [3]; greater than 1 µM under setting [4]; greater than 1 µM (curve of first compound, second compound 3.16 µM); less than 0.00316 µM (curve of first compound, second compound 10 µM). Also, the viability, T/C is 96.4% (second compound 0.0316 µM, first compound 0.00316 µM); 107% (second compound 0.0316 µM, first compound 0.01 µM); 104% under setting [5]; 99.2% under setting [6]; 119% under setting [7]; 120% under setting [8]. The viability, T/C by setting is: (second compound 0.1 µM, first compound 0.00316 µM) 101%; (second compound 0.1 µM, first compound 0.01 µM) 103%; under setting [9], 101%; under setting [10], 114%; under setting [11], 100%; under setting [12], 109%. Moreover, the viability, T/C is, setting by setting: (second compound 0.316 µM, first compound 0.00316 µM) 88.8%; (second compound 0.316 µM, first compound 0.01 µM) 93.7%; under setting [13], 90%; under setting [14], 91.6%; under setting [15], 96.9%; under setting [16], 101%. Besides, the viability, T/C runs as follows: (second compound 1 µM, first compound 0.00316 µM) 78.2%; (second compound 1 µM, first compound 0.01 µM) 75.5%; under setting [17], 73%; under setting [18], 80.4%; under setting [19], 83.6%; under setting [20], 83.1%. Also, the viability, T/C reads like this: (second compound 3.16 µM, first compound 0.00316 µM) 49.9%; (second compound 3.16 µM, first compound 0.01 µM) 57.7%; (second compound 3.16 µM, first compound 0.0316 µM) 53.8%; (second compound 3.16 µM, first compound 0.1 µM) 59.3%; (second compound 3.16 µM, first compound 0.316 µM) 64.7%; (second compound 3.16 µM, first compound 1 µM) 69.8%. The viability, T/C was 41.9% (second compound 10 µM, first compound 0.00316 µM); 38.8% (second compound 10 µM, first compound 0.01 µM); 40.7% (second compound 10 µM, first compound 0.0316 µM); 41.5% (second compound 10 µM, first compound 0.1 µM); 43.5% (second compound 10 µM, first compound 0.316 µM); 41.6% (second compound 10 µM, first compound 1 µM).
On to `Cn1ncc(Cl)c1-c1cc(C(=O)NC(CN)Cc2cccc(F)c2)sc1Cl` (stereo unspecified) + COc1c(OCCCN2CCOCC2)ccc2c3n(c(=NC(=O)c4cnc(N)nc4)nc12)CCN3, for which the half-inhibitory concentration (IC50) (curve of first compound, second compound 0.00316 µM) is 0.62 µM; the half-maximal inhibitory concentration (IC50) (curve of first compound, second compound 0.01 µM) is 0.639 µM; the IC50 under setting [1] turned out to be 0.419 µM; the IC50 under setting [2] was 0.11 µM; the IC50 under setting [3] is less than 0.0316 µM; the IC50 under setting [4] is less than 0.0316 µM. The viability, T/C (second compound 0.00316 µM, first compound 0.0316 µM) was 110%; the viability, T/C (second compound 0.00316 µM, first compound 0.1 µM) is 102%; the viability, T/C (second compound 0.00316 µM, first compound 0.316 µM) is 59.3%; the viability, T/C (second compound 0.00316 µM, first compound 1 µM) was 40.3%; the viability, T/C (second compound 0.00316 µM, first compound 3.16 µM) is 23.1%; the viability, T/C (second compound 0.00316 µM, first compound 10 µM) is 7.29%. Also, the viability, T/C reads like this: (second compound 0.01 µM, first compound 0.0316 µM) 97.9%; (second compound 0.01 µM, first compound 0.1 µM) 84%; (second compound 0.01 µM, first compound 0.316 µM) 70.5%; (second compound 0.01 µM, first compound 1 µM) 35.2%; (second compound 0.01 µM, first compound 3.16 µM) 22.1%; (second compound 0.01 µM, first compound 10 µM) 6.56%. Besides, the viability, T/C under setting [5] is 84.6%; the viability, T/C under setting [6] is 78.2%; the viability, T/C under setting [7] is 53.5%; the viability, T/C under setting [8] is 32.2%; the viability, T/C (second compound 0.0316 µM, first compound 3.16 µM) was 16.9%; the viability, T/C (second compound 0.0316 µM, first compound 10 µM) was 4.04%. The viability, T/C was 67.5% under setting [9]; 52.1% under setting [10]; 34% under setting [11]; 21.8% under setting [12]; 10.3% (second compound 0.1 µM, first compound 3.16 µM); 3.19% (second compound 0.1 µM, first compound 10 µM). The viability, T/C under setting [13] is 21.9%; the viability, T/C under setting [14] was 16.6%; the viability, T/C under setting [15] is 11.8%; the viability, T/C under setting [16] is 7.56%; the viability, T/C (second compound 0.316 µM, first compound 3.16 µM) was 4.03%; the viability, T/C (second compound 0.316 µM, first compound 10 µM) is 1.46%. Also, the viability, T/C runs as follows: under setting [17], 4.06%; under setting [18], 2.7%; under setting [19], 2.87%; under setting [20], 2.72%; (second compound 1 µM, first compound 3.16 µM) 2.27%; (second compound 1 µM, first compound 10 µM) 0.3%.
For `Cn1nccc1Nc1nccc(-c2ccn(C(CO)c3ccc(Cl)c(F)c3)c(=O)c2)n1` (stereo unspecified), the viability, T/C runs as follows: (compound 0.0316 µM) 107% [middle of 4 runs]; (compound 0.1 µM) 104% [middle of 4 runs]; (compound 0.316 µM) 112% [middle of 4 runs]; (compound 1 µM) 110% [middle of 4 runs]; (compound 3.16 µM) 110% [middle of 4 runs]; (compound 10 µM) 81.2% [middle of 4 runs]. In addition, where the note is “curve of compound”, the IC50 was greater than 10 µM.
Take `CCN1CCN(Cc2ccc(Nc3ncc(F)c(-c4cc(F)c5nc(C)n(C(C)C)c5c4)n3)nc2)CC1`: the viability, T/C is, setting by setting: (compound 0.00316 µM) 107% [middle of 4 runs]; (compound 0.01 µM) 96.7% [middle of 4 runs]; (compound 0.0316 µM) 103% [middle of 4 runs]; (compound 0.1 µM) 103% [middle of 4 runs]; (compound 0.316 µM) 109% [middle of 4 runs]; (compound 1 µM) 117% [middle of 4 runs]. Where the note is “curve of compound”, the concentration for half-maximal inhibition (IC50) is greater than 1 µM.
Consider `C[C@@H](NC(=O)c1ncnc(N)c1Cl)c1ncc(C(=O)Nc2cc(C(F)(F)F)c(Cl)cn2)s1`, for which the viability, T/C (compound 0.0316 µM) was 105% [middle of 4 runs]; the viability, T/C (compound 0.1 µM) is 98.5% [middle of 4 runs]; the viability, T/C (compound 0.316 µM) is 103% [middle of 4 runs]; the viability, T/C (compound 1 µM) is 106% and 107% (2×) and 91.5%; the viability, T/C (compound 3.16 µM) was 114% [middle of 4 runs]; the viability, T/C (compound 10 µM) is 117% [middle of 4 runs]. For the setting “curve of compound”, the IC50 was greater than 10 µM.
Take `CC1(C)CCC(CN2CCN(c3ccc(C(=O)NS(=O)(=O)c4ccc(NCC5CCOCC5)c([N+](=O)[O-])c4)c(Oc4cnc5[nH]ccc5c4)c3)CC2)=C(c2ccc(Cl)cc2)C1`: the viability, T/C is, setting by setting: (compound 0.0316 µM) 102% (2×) and 94.5% and 111%; (compound 0.1 µM) 101% (2×) and 96.3% and 98.1%; (compound 0.316 µM) 110% [middle of 4 runs]; (compound 1 µM) 98.5% [middle of 4 runs]; (compound 3.16 µM) 89% [middle of 4 runs]. Where the note is “curve of compound”, the IC50 was > 10 µM and 4.88 µM and 5.19 µM.

These data come from PubChem BioAssay AID1963974 (Molecular Pharmacology Branch, DTP, NCI, 2024).
